Laboratory results taken from patent publication US9850283B2, “Macrocyclic inhibitors of the PD-1/PD-L1 and CD80(B7-1)/PD-L1 protein/protein interactions” (BRISTOL-MYERS SQUIBB COMPANY, priority 2013, dated 2017).
Where two headings read alike, the source gives them in different places. Starred links: 1 amine or outer side, 2 acyl side, 3 side chain; linkers in the order of their positions; H or OH if unused. Positions of bridges follow the written chain, without caps; N, C: chain ends. Non-standard residues stand in square brackets, D forms with d. Residues, ends and D or L forms follow the SMILES beside them. Trp(1-CH2COOH) = N[C@@H](Cc1cn(CC(=O)O)c2ccccc12)C(=O)O; Tyr(3-Br) = N[C@@H](Cc1ccc(O)c(Br)c1)C(=O)O; X16 = O=C([C@@H]1CC[C@H](O)CN1[*:1])[*:2]; cisHyp = O=C(O)[C@@H]1C[C@H](O)CN1; Hyp = O=C(O)[C@@H]1C[C@@H](O)CN1; dNMeNle = CCCC[C@@H](NC)C(=O)O; NMeNle = CCCC[C@H](NC)C(=O)O; NMeA = CN[C@@H](C)C(=O)O; Dab = NCC[C@H](N)C(=O)O; Dap = NC[C@H](N)C(=O)O; Sar = CNCC(=O)O

Tests used:
[1] = target: T1, LK35.2-hPD-L1 cells / PE-labeled PD-1-Ig (Homo sapiens, UniProt Q9NZQ7); assay: LK35.2-hPD-L1 cell binding high-content screening assay; type: cell-based; details: cell binding assay, cell line not given
T1 construct: expressed in transfected cells; host or cells: LK35.2 mouse B cell line
T1 sequence (Q9NZQ7 19-290): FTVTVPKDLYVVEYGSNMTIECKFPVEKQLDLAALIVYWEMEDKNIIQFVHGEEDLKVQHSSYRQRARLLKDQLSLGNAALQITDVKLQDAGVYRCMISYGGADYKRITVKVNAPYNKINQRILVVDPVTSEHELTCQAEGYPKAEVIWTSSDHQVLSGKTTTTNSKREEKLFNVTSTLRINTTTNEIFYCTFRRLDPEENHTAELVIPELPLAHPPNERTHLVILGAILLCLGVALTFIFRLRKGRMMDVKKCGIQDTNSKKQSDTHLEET
Outline: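 Compound effect on PD-1/PD-L1 binding is measured by imaging cell-associated phycoerythrin signal. Human PD-1-Ig (PE on Ig tag, 1 nM final) is applied with compound to a murine B cell line overexpressing human PD-L1 for 1 h at 37 °C in serum-containing RPMI.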

Human PD-L1/PD-1 = target: T2, Human PD-L1/PD-1 (Homo sapiens, UniProt Q9NZQ7); assay: HTRF PD-1-Ig/PD-L1-His binding assay (human PD-L1)
T2 construct: made in house; host or cells: HEK293T
T2 sequence (Q9NZQ7 with tags, fused parts or gaps): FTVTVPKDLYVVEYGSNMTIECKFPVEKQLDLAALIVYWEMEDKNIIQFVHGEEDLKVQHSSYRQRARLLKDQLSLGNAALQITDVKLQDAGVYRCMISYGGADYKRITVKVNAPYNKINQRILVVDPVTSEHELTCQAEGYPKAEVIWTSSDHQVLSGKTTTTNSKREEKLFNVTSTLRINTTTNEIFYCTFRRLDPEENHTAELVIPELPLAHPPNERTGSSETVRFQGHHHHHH
Outline: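 Steps: truncated PD-1-Ig and PD-L1-His fusions are incubated in dPBS containing 0.1% (w/v) BSA and 0.05% (v/v) Tween-20. Detection antibodies are then added (Eu cryptate anti-Ig at 1 nM final, APC anti-His at 20 nM final), and time-resolved FRET is measured.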

[2] = cluster symbol, read-out: CBA IC50 cluster
[3] = cluster symbol, read-out: HTRF IC50 cluster

SMILES | IC50 [1, 2] | IC50 (Human PD-L1/PD-1; [3]) | IC50 ([1]; value given instead of cluster, read-out: CBA IC50 value) | IC50 (Human PD-L1/PD-1; value given instead of cluster, read-out: HTRF IC50 value)
CCCC[C@H]1C(=O)N(C)[C@@H](COc2cccc(C)c2)C(=O)N[C@@H](CC(C)C)C(=O)N[C@H](C(=O)NCC(N)=O)CSCC(=O)N[C@@H](Cc2ccc(O)cc2)C(=O)N(C)[C@@H](C)C(=O)N[C@@H](CC(N)=O)C(=O)N2CCC[C@H]2C(=O)N[C@@H](CN)C(=O)N[C@@H](CC(C)C)C(=O)N2C[C@H](O)C[C@H]2C(=O)N[C@@H](Cc2c[nH]c3ccccc23)C(=O)N[C@@H](CCN)C(=O)N[C@@H](Cc2c[nH]c3ccccc23)C(=O)N1C [Example 6029] | 4.78 to 72.9 nM | 0.385 to 6.74 nM | – | –
CCCC[C@H]1C(=O)N(C)[C@@H](COc2cccc(C)c2)C(=O)N[C@@H](CCN)C(=O)N[C@H](C(=O)NCC(N)=O)CSCC(=O)N[C@@H](Cc2ccc(O)cc2)C(=O)N(C)[C@@H](C)C(=O)N[C@@H](CC(N)=O)C(=O)N2CCC[C@H]2C(=O)N[C@@H](CN)C(=O)N[C@@H](CCC(=O)O)C(=O)N2C[C@H](O)C[C@H]2C(=O)N[C@@H](Cc2c[nH]c3ccccc23)C(=O)N[C@@H](CO)C(=O)N[C@@H](Cc2c[nH]c3ccccc23)C(=O)N1C [Example 6030] | 4.78 to 72.9 nM | 0.385 to 6.74 nM | – | –
CCCC[C@H]1C(=O)N(C)[C@@H](COc2cccc(C)c2)C(=O)N[C@@H](CCN)C(=O)N[C@H](C(=O)NCC(N)=O)CSCC(=O)N[C@@H](Cc2ccc(O)cc2)C(=O)N(C)[C@@H](C)C(=O)N[C@@H](CC(=O)O)C(=O)N2CCC[C@H]2C(=O)N[C@@H](CN)C(=O)N[C@@H](CCC(=O)O)C(=O)N2C[C@H](O)C[C@H]2C(=O)N[C@@H](Cc2c[nH]c3ccccc23)C(=O)N[C@@H](CO)C(=O)N[C@@H](Cc2c[nH]c3ccccc23)C(=O)N1C [Example 6031] | 4.78 to 72.9 nM | 0.385 to 6.74 nM | – | –
CCCC[C@H]1C(=O)N(C)[C@@H](CCCC)C(=O)N[C@@H](CCCNC(=N)N)C(=O)N[C@H](C(=O)NCC(N)=O)CSCC(=O)N[C@@H](Cc2ccc(O)cc2)C(=O)N(C)[C@@H](C)C(=O)N[C@@H](CC(N)=O)C(=O)N2CCC[C@H]2C(=O)N[C@@H](CN)C(=O)N[C@@H](CC(C)C)C(=O)N2C[C@H](O)C[C@H]2C(=O)N[C@@H](Cc2c[nH]c3ccccc23)C(=O)N[C@@H](C(C)C)C(=O)N[C@@H](Cc2c[nH]c3ccccc23)C(=O)N1C [Example 6032] ({CH2CO}-Y[NMeA]NP[Dap]L[Hyp]WVW[NMeNle][NMeNle]RCG-NH2; thioether N-14) | 0.158 to 4.71 nM | 0.385 to 6.74 nM | – | –
CCCC[C@H]1C(=O)N(C)[C@@H](CCCC)C(=O)N[C@@H](CCCNC(=N)N)C(=O)N[C@H](C(=O)NCC(N)=O)CSCC(=O)N[C@@H](Cc2ccc(O)cc2)C(=O)N(C)[C@@H](C)C(=O)N[C@@H](CC(N)=O)C(=O)N2CCC[C@H]2C(=O)N[C@@H](CN)C(=O)N[C@@H](CC(C)C)C(=O)N2C[C@H](O)C[C@H]2C(=O)N[C@@H](Cc2c[nH]c3ccccc23)C(=O)N[C@@H](CC(N)=O)C(=O)N[C@@H](Cc2c[nH]c3ccccc23)C(=O)N1C [Example 6033] ({CH2CO}-Y[NMeA]NP[Dap]L[Hyp]WNW[NMeNle][NMeNle]RCG-NH2; thioether N-14) | 0.158 to 4.71 nM | 0.385 to 6.74 nM | – | –
CCCC[C@H]1C(=O)N(C)[C@@H](CCCC)C(=O)N[C@@H](CCCNC(=N)N)C(=O)N[C@H](C(=O)NCC(N)=O)CSCC(=O)N[C@@H](Cc2ccc(O)cc2)C(=O)N(C)[C@@H](C)C(=O)N[C@@H](CC(N)=O)C(=O)N2CCC[C@H]2C(=O)N[C@@H](CN)C(=O)N[C@@H](CC(C)C)C(=O)N2C[C@H](O)C[C@H]2C(=O)N[C@@H](Cc2c[nH]c3ccccc23)C(=O)N[C@@H](CC(C)C)C(=O)N[C@@H](Cc2c[nH]c3ccccc23)C(=O)N1C [Example 6034] ({CH2CO}-Y[NMeA]NP[Dap]L[Hyp]WLW[NMeNle][NMeNle]RCG-NH2; thioether N-14) | 0.158 to 4.71 nM | 0.385 to 6.74 nM | – | –
CCCC[C@H]1C(=O)N(C)[C@@H](CCCC)C(=O)N[C@@H](CCN)C(=O)N[C@H](C(=O)NCC(N)=O)CSCC(=O)N[C@@H](Cc2ccc(O)c(Br)c2)C(=O)N(C)[C@@H](C)C(=O)N[C@@H](CC(N)=O)C(=O)N2CCC[C@H]2C(=O)N[C@@H](Cc2cnc[nH]2)C(=O)N[C@@H](CC(C)C)C(=O)N2C[C@H](O)C[C@H]2C(=O)N[C@@H](Cc2c[nH]c3ccccc23)C(=O)N[C@@H](CCN)C(=O)N[C@@H](Cc2c[nH]c3ccccc23)C(=O)N1C [Example 6036] ({CH2CO}-[Tyr(3-Br)][NMeA]NPHL[Hyp]W[Dab]W[NMeNle][NMeNle][Dab]CG-NH2; thioether N-14) | 0.158 to 4.71 nM | 0.385 to 6.74 nM | – | –

More lines, now with the values ahead:

IC50 [1, 2] | IC50 (Human PD-L1/PD-1; [3]) | IC50 ([1]; value given instead of cluster, read-out: CBA IC50 value) | IC50 (Human PD-L1/PD-1; value given instead of cluster, read-out: HTRF IC50 value) | SMILES
0.158 to 4.71 nM | 0.385 to 6.74 nM | – | – | CCCC[C@H]1C(=O)N(C)[C@@H](CCCC)C(=O)N[C@@H](CC(C)C)C(=O)N[C@H](C(=O)NCC(N)=O)CSCC(=O)N[C@@H](Cc2ccc(O)cc2)C(=O)N(C)[C@@H](C)C(=O)N[C@@H](CC(N)=O)C(=O)N2CCC[C@H]2C(=O)N[C@@H](CN)C(=O)N[C@@H](CC(C)C)C(=O)N2CCC[C@H]2C(=O)N[C@@H](Cc2c[nH]c3ccccc23)C(=O)N[C@@H](CCN)C(=O)N[C@@H](Cc2c[nH]c3ccccc23)C(=O)N1C [Example 6040] ({CH2CO}-Y[NMeA]NP[Dap]LPW[Dab]W[NMeNle][NMeNle]LCG-NH2; thioether N-14)
4.78 to 72.9 nM | 6.76 to 30.3 nM | – | – | CCCC[C@H]1C(=O)N[C@@H](Cc2c[nH]c3ccccc23)C(=O)N[C@@H](CCN)C(=O)N[C@@H](Cc2c[nH]c3ccccc23)C(=O)N(C)[C@@H](CCCC)C(=O)N(C)[C@@H](CCCC)C(=O)N[C@@H](CC(C)C)C(=O)N[C@H](C(=O)NCC(N)=O)CSCC(=O)N[C@@H](Cc2ccc(O)cc2)C(=O)N(C)[C@@H](C)C(=O)N[C@@H](CC(N)=O)C(=O)N2CCC[C@H]2C(=O)N[C@@H](CN)C(=O)N[C@@H](CC(C)C)C(=O)N1C [Example 6041] ({CH2CO}-Y[NMeA]NP[Dap]L[NMeNle]W[Dab]W[NMeNle][NMeNle]LCG-NH2; thioether N-14)
4.78 to 72.9 nM | 0.385 to 6.74 nM | – | – | CCCC[C@H]1C(=O)N(C)[C@@H](CCCC)C(=O)N[C@@H](CC(C)C)C(=O)N[C@H](C(=O)NCC(N)=O)CSCC(=O)N[C@@H](Cc2ccc(O)cc2)C(=O)N(C)[C@@H](C)C(=O)N[C@@H](CC(N)=O)C(=O)N2CCC[C@H]2C(=O)N[C@@H](CN)C(=O)N[C@@H](CC(C)C)C(=O)N2C[C@@H](O)CC[C@H]2C(=O)N[C@@H](Cc2c[nH]c3ccccc23)C(=O)N[C@@H](CCN)C(=O)N[C@@H](Cc2c[nH]c3ccccc23)C(=O)N1C [Example 6042] ({CH2CO}-Y[NMeA]NP[Dap]L[X16]W[Dab]W[NMeNle][NMeNle]LCG-NH2; thioether N-14)
4.78 to 72.9 nM | 0.385 to 6.74 nM | – | – | CCCC[C@H]1C(=O)N(C)[C@@H](CCCC)C(=O)N[C@@H](CCN)C(=O)N[C@H](C(=O)NCC(N)=O)CSCC(=O)N[C@@H](Cc2ccc(O)c(Br)c2)C(=O)N(C)[C@@H](C)C(=O)N[C@@H](CC(N)=O)C(=O)N2CCC[C@H]2C(=O)N[C@@H](Cc2cnc[nH]2)C(=O)N[C@@H](CC(C)C)C(=O)N(C)CC(=O)N[C@@H](Cc2c[nH]c3ccccc23)C(=O)N[C@@H](CCN)C(=O)N[C@@H](Cc2c[nH]c3ccccc23)C(=O)N1C [Example 6043] ({CH2CO}-[Tyr(3-Br)][NMeA]NPHL[Sar]W[Dab]W[NMeNle][NMeNle][Dab]CG-NH2; thioether N-14)
> 74.3 nM | 6.76 to 30.3 nM | – | – | CCCC[C@H]1C(=O)N2CCC[C@@H]2C(=O)N[C@@H](CCN)C(=O)N[C@H](C(=O)NCC(N)=O)CSCC(=O)N[C@@H](Cc2ccc(O)c(Br)c2)C(=O)N(C)[C@@H](C)C(=O)N[C@@H](CC(N)=O)C(=O)N2CCC[C@H]2C(=O)N[C@@H](Cc2cnc[nH]2)C(=O)N[C@@H](CC(C)C)C(=O)N2C[C@H](O)C[C@H]2C(=O)N[C@@H](Cc2c[nH]c3ccccc23)C(=O)N[C@@H](CCN)C(=O)N[C@@H](Cc2c[nH]c3ccccc23)C(=O)N1C [Example 6044] ({CH2CO}-[Tyr(3-Br)][NMeA]NPHL[Hyp]W[Dab]W[NMeNle][dP][Dab]CG-NH2; thioether N-14)
– | – | 625 nM | 90.1 nM | CCCC[C@H]1C(=O)N2CCC[C@@H]2C(=O)N[C@@H](CCN)C(=O)N[C@H](C(=O)NCC(N)=O)CSCC(=O)N[C@@H](Cc2ccc(O)c(Br)c2)C(=O)N(C)[C@@H](C)C(=O)N[C@@H](CC(N)=O)C(=O)N2CCC[C@H]2C(=O)N[C@@H](Cc2cnc[nH]2)C(=O)N[C@@H](CC(C)C)C(=O)N(C)CC(=O)N[C@@H](Cc2c[nH]c3ccccc23)C(=O)N[C@@H](CCN)C(=O)N[C@@H](Cc2c[nH]c3ccccc23)C(=O)N1C [Example 6045] ({CH2CO}-[Tyr(3-Br)][NMeA]NPHL[Sar]W[Dab]W[NMeNle][dP][Dab]CG-NH2; thioether N-14)
0.158 to 4.71 nM | 0.385 to 6.74 nM | – | – | CCCC[C@@H]1C(=O)N[C@@H](CC(C)C)C(=O)N[C@H](C(=O)NCC(N)=O)CSCC(=O)N[C@@H](Cc2ccc(O)cc2)C(=O)N(C)[C@@H](C)C(=O)N[C@@H](CC(N)=O)C(=O)N2CCC[C@H]2C(=O)N[C@@H](CN)C(=O)N[C@@H](CC(C)C)C(=O)N2C[C@@H](O)C[C@H]2C(=O)N[C@@H](Cc2c[nH]c3ccccc23)C(=O)N[C@@H](CCN)C(=O)N[C@@H](Cc2cn(CC(=O)O)c3ccccc23)C(=O)N(C)[C@@H](CCCC)C(=O)N1C [Example 6046] ({CH2CO}-Y[NMeA]NP[Dap]L[cisHyp]W[Dab][Trp(1-CH2COOH)][NMeNle][dNMeNle]LCG-NH2; thioether N-14)
